Measured values from patent US20190151283A1, “NON-STEROIDAL SELECTIVE GLUCOCORTICOID RECEPTOR AGONISTIC MODULATORS (SEGRAMs) AND USES THEREOF” (ASSOCIATION POUR LA RECHERCHE À L'IGBMC (ARI), priority 2017, published 2019).
Each block holds one molecule with its values, some of them ahead of it.

Key:
[1] = tested on: B6 male mice; assay: Bone formation after three-month treatment (micro-CT, WNT16 transcripts); type: in vivo; conditions: mouse tibia, three months
[2] = tested on: B6 male mice; assay: Insulin level, insulin tolerance test and liver insulin signalling after three-month treatment; type: in vivo, mouse
Protocol: B6 male mice (8-week-old) were subjected daily for three months to a subcutaneous injection of either vehicle (NaCl 0.9%), Dex, CpdX, CpdX(eA), CpdX(eB), CpdX-D3, CpdX-D3(eA) or CpdX-D3(eB) (1 mg/kg body weight, diluted in vehicle). After three months, the blood was collected at 10 a.m. by retro-orbital puncture in lithium-heparin coated vials, and the plasmatic level of insulin was determined.
For the intraperitoneal insulin tolerance test (IPITT), mice were fasted for 6 hours before test. The blood glucose concentration was measured both before (T0) and during a one-hour period after insulin i.p. injection (0.75 U/kg body weight).
Following this three-month treatment, liver samples were harvested and lysed in the RIPA buffer (20 mM Tris pH 8, 150 mM NaCl, 10% glycerol, 1% NP-40 and 2 mM EDTA). Antibodies from Cell Signaling were used to assess by Western-Blotting the relative level of p-IRS1 (S318), IRS-1, p-AKT (S473) and AKT.

[3] = tested on: B6 male mice; assay: Organ weights (thymus, spleen, adrenal gland, kidney) after three-month treatment; type: in vivo, mouse; conditions: s.c. 1 mg/kg daily, three months
Protocol: B6 male mice (8-week-old) were daily subjected for three months to a subcutaneous injection of either vehicle (NaCl 0.9%), Dex, CpdX, CpdX(eA), CpdX(eB), CpdX-D3, CpdX-D3(eA) or CpdX-D3(eB) (1 mg/kg body weight, diluted in vehicle). Following these treatments, four organs (thymus, spleen, adrenal gland and kidney) were harvested and weighted.

[4] = tested on: B6 male mice; assay: Body weight and body composition after three-month treatment; type: in vivo, mouse; conditions: s.c. 1 mg/kg daily, 3 months
Protocol: B6 male mice (8-week-old) were daily subjected for three months to a subcutaneous injection of either vehicle (NaCl 0.9%), Dex, CpdX or CpdX-D3 (1 mg/kg body weight, diluted in vehicle. A pDEXA machine was used to determine the lean mass and fat mass. The statistical significance was calculated through Krustal-Walis test followed by a Dunn's multiple comparison test, *p<0.05; **p<0.01; ***p<0.001.

[5] = tested on: B6 male mice; assay: Blood glucose and intraperitoneal glucose tolerance test after three-month treatment; type: in vivo, mouse
Protocol: B6 male mice (8-week-old) were daily subjected for three months to a subcutaneous injection of either vehicle (NaCl 0.9%), Dex, CpdX, CpdX(eA), CpdX(eB), CpdX-D3, CpdX-D3(eA) or CpdX-D3(eB) (1 mg/kg body weight, diluted in vehicle). Mice were over-night-fasted. Mouse blood glucose concentration was measured before (T0) and during two hours (T120) after glucose i.p. injection ([…] body weight).

[6] = tested on: Balb/C mice; assay: Skin atrophy after 8-day topical treatment of dorsal skin; type: in vivo, mouse
Text: To investigate whether, similarly to Dex, a topical administration of CpdX could result in a skin atrophy, Balb/C mice were shaved on the dorsal skin. Ethanol (vehicle), Dex, CpdX or either one of its two enantiomers CpdX(eA) or CpdX(eB), as well as the deuterated form CpdX-D3 or either one of its two enantiomers CpdX-D3(eA) or CpdX-D3(eB), were topically applied onto the dorsal skin for 8 days.
Upon completion of the treatments, RNA transcripts were extracted from dorsal skin samples and the transcripts of Kindlin-1 and REDD1 genes were analyzed by q-RT-PCR. Histological and morphometric analyses of the dorsal skin were also performed.

[7] = tested on: B6 male mice; assay: Corticosterone synthesis and adrenal gland after three-month treatment; type: in vivo, mouse
Protocol: B6 male mice (8-week-old) were daily subjected for three months to either a subcutaneous injection of vehicle (NaCl 0.9%), Dex, CpdX, CpdX(eA), CpdX(eB), CpdX-D3, CpdX-D3(eA) or CpdX-D3(eB) (1 mg/kg body weight, diluted in vehicle).
Following this long-term treatment, blood was collected at 10 a.m. and 6 p.m. by retro-orbital puncture in lithium-heparin coated vials, and the plasmatic level of corticosterone was determined. Adrenal glands were harvested and weighted. RNA transcripts were extracted and transcripts of the Cyp11a, Cyp11b1, Cyp11b2 and HSD3β genes were analyzed by q-RT-PCR. Histological analyses of the adrenal glands were also carried out.

[8] = tested on: B6 male mice; assay: Fatty liver after three-month treatment; type: in vivo, mouse; conditions: three months
Protocol: B6 male mice (8-week-old) were daily subjected for three months to a subcutaneous injection of either vehicle (NaCl 0.9%), Dex, CpdX, CpdX(eA), CpdX(eB), CpdX-D3, CpdX-D3(eA) or CpdX-D3(eB) (1 mg/kg body weight, diluted in vehicle). Following this treatment, blood was collected at 10 a.m. by retro-orbital puncture in lithium-heparin coated vials. The plasmatic levels of total cholesterol and bile acids were determined.
Liver samples were harvested. […] RNA transcripts were extracted from liver samples and the transcripts of fatty acid synthase (FASN) and Stearoyl-CoA desaturase 1 (SCD1) genes were analyzed by q-RT-PCR.

[9] = tested on: B6 male mice; assay: Bone formation after three-month treatment (micro-CT, WNT16 transcripts); type: in vivo, mouse; conditions: three months
Protocol: B6 male mice (8-week-old) were daily subjected for three months to either a subcutaneous injection of vehicle (NaCl 0.9%), Dex, CpdX, CpdX(eA), CpdX(eB), CpdX-D3, CpdX-D3(eA) or CpdX-D3(eB) (1 mg/kg body weight, diluted in NaCl 0.9%).
From each animal included in the experiments, one femur and the ipsilateral tibia were dissected and preserved in 70% ethanol for further bone microstructure analysis by micro-CT. The FX Quantum micro-CT scanner (Perkin Elmer) was used to perform measurements at the distal femur and midshaft tibia. All scans were performed with an isotropic voxel size of 10 μm, 160 μA tube current and 90 kV tube voltage.
Morphological 3D measurements were performed using the CTAn software (Bruker). Cortical bone parameters, which were measured in the tibia midshaft, included measures of the bone volume fraction as compared to the total volume, cortical thickness, total area, bone area and marrow area. The region of interest was selected from below the distal tibial crest and continued for 20 slices toward the proximal end of the tibia. Trabecular bone parameters were measured in the distal metaphysis of the femurs and included bone volume fraction, trabecular thickness, trabecular number and trabecular spacing. The region of interest was selected from below the distal growth plate where the epiphyseal cap structure completely disappeared and continued for 100 slices toward the proximal end of the femur.
The statistical significance as compared to vehicle treatment was calculated through one-way ANOVA test followed by Dunn's multiple comparison test, *p<0.05; **p<0.01; ***p<0.001; ****p<0.0001.

[10] = target: T1, glucocorticoid receptor (GR) (Mus musculus, UniProt P06537); assay: GR transcriptional functions in mouse ears after topical 18-hour treatment (q-RT-PCR); type: in vivo; conditions: in vivo transcriptional analyses, 1 nmole/cm^2
T1 construct: RNA transcripts were then extracted from mouse ears; from tissue; host or cells: ear skin of Balb/C mice (in vivo topical treatment)
T1 sequence (P06537 1-792): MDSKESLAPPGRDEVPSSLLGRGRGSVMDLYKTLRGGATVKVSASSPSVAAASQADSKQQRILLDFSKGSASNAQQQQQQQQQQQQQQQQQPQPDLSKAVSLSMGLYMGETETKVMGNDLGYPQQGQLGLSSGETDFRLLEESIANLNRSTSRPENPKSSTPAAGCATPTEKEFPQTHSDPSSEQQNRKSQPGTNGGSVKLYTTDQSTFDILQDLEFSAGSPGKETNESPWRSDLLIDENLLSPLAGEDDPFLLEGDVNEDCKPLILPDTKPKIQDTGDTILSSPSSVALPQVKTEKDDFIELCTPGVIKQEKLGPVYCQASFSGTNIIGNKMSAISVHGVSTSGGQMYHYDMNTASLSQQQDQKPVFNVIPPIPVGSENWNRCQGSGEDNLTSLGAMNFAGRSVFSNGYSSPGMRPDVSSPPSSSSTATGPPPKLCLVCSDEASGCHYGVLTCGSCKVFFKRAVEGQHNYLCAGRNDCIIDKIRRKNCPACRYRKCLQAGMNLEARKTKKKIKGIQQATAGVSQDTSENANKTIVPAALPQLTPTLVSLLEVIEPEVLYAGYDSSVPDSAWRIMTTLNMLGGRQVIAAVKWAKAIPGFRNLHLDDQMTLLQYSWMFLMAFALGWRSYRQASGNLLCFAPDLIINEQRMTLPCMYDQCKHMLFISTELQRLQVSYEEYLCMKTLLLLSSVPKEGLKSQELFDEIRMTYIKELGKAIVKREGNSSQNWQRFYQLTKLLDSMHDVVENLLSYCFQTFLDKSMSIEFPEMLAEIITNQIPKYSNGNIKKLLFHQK
Protocol: RNA transcripts were then extracted from mouse ears and the transcripts of 4 genes were analyzed by q-RT-PCR: • (i) the directly GR-transactivated gene of the mTOR inhibitor REDD1, • (ii) the GR-directly transrepressed gene of keratin 5 (K5) and • (iii) the GR-indirectly “tethered” transrepressed genes of interleukin-1β (IL-1β) and interleukin-6 (IL-6), both being activated in presence of 12-O-tetradecanoylphorbol-13-acetate (TPA).

- transcription of the WNT16 gene decreased by [1]: 50%
- kidney weight [3]: weak, but significant loss
- spleen weight decreased by [3]: more than 50%
- weight of the adrenal gland [3]: decreased
- epidermal thickness decreases by ([6]; eight-day topical treatment, morphometric analysis): ≈ 65%
- skin atrophy, histological analysis ([6]; eight-day topical treatment, 'in marked contrast' = no severe atrophy as with Dex): severely induces a skin atrophy
- transcription of the Kindlin-1 gene in dorsal skin ([6]; topical 8 days, 1 nmole/cm^2, 'but not' = not decreased): strongly decreased
- transcription of the REDD1 gene in dorsal skin ([6]; topical 8 days, 1 nmole/cm^2, 'but not' = not increased): significantly increased
- plasmatic corticosterone levels ([7]; at both 10 a.m. and 6 p.m., compared to control mice (Vehicle)): much lower
- cortex layers, most notably the fasciculata zone, of the adrenal glands ([7]; three months, histology): drastically decreased
- glomerulosa zone of the adrenal cortex ([7]; three months, histology, 'but not' = not decreased): drastically decreased
- transcripts of Cyp11a, Cyp11b1 and HSD3β genes in adrenal glands ([7]; three months, q-RT-PCR): inhibited
- transcript of the Cyp11b2 gene in adrenal glands ([7]; three months, q-RT-PCR, 'but not' = not inhibited): inhibited
- lipid deposition in the liver ([8]; 5% Red oil staining of frozen sections): marked lipid deposition
- transcripts of fatty acid synthase (FASN) and Stearoyl-CoA desaturase 1 (SCD1) in liver ([8]; q-RT-PCR, 'but not' = no increase): increase
- blood cholesterol and bile acids' levels ([8]; 'but not' = no clear increase): clear increase
- bone area ([9]; s.c. 1 mg/kg daily, micro-CT): reduced
- cortical thickness ([9]; s.c. 1 mg/kg daily, micro-CT): drastically decreased
- tibia cortical bone volume as compared to the total volume ([9]; s.c. 1 mg/kg daily, micro-CT): significantly decreased
- marrow area ([9]; s.c. 1 mg/kg daily, 'but not' = not reduced): but not
- number of trabecula ([9]; data not shown): increase
- trabecular bone volume ([9]; data not shown): increased
- trabecular spacing ([9]; data not shown): decrease
- trabecular thickness ([9]; data not shown): no change
Structure (SMILES): C[C@@H]1C[C@H]2[C@@H]3CCC4=CC(=O)C=C[C@]4(C)[C@@]3(F)[C@@H](O)C[C@]2(C)[C@@]1(O)C(=O)CO [Dex, Dexamethasone, reference compound]
- IPITT test, response to insulin ([2]; one hour after insulin i.p. 0.75 U/kg): significant impaired response to insulin
- blood insulin level (hyperinsulinemia) ([2]; three months, 10 a.m., 'but not' = no hyperinsulinemia): hyperinsulinemia
- phosphorylation of insulin-stimulated protein kinase B (p-AKT S473) ([2]; western-blot, liver): decreased
- phosphorylated insulin receptor substrate 1 (p-IRS1 S318) in liver extracts ([2]; western-blot, 'but not' = no decrease): decrease
- thymus apoptosis / thymus found [3]: no thymus was found in sixteen out of nineteen mice
- fat mass ([4]; pDEXA): disproportional increase
- lean percentage / lean mass ([4]; pDEXA): decrease
- body weight ([4]; compared with vehicle): net loss
- blood glucose level ([5]; three months, over-night fasting, vs vehicle and CpdX compounds): significantly higher
- blood glucose level in intraperitoneal glucose tolerance test (IPGTT) ([5]; two-hour period after glucose i.p. injection (2 mg/kg body weight)): significant higher

- GR functions induced (direct transactivation, direct transrepression, indirect tethered transrepression) [10]: all three GR functions
Structure (SMILES): Cc1ccc2c(NC[C@](O)(CC(C)(C)c3cc(F)cc4c3OCC4)C(F)(F)F)cccc2n1 [Mapracorat, reference compound]
